“Also recorded” adds a separate entry of the source.
Columns and labels:
[1] = Stability in aerobic solution / to pH; assay type: physicochemical
Description: (§1) Over this time, collected UV/vis spectra (FIGS. 2 & 3) display changes in the region between 200 nm and 300 nm which are consistent with the oxidation of the quinol to a para-quinone. Past 24 h, the solution begins to turn brown, consistent with oxidation of the manganese to Mn(III) and/or Mn(IV). For the spectrophotometric analysis, the Fe(ClO4)2 solution was added to a MeCN solution containing 0.10 mM [Mn(Hptp1)(MeCN)]^2+; the mixture was scanned at 0 min (dashed red), 30 min (dashed pink), and 60 min (dashed blue). […] At 15 h, approximately 11% of the Mn(II) has been displaced by Fe(II) as indicated by data in FIG. 3.
(§2) The stability of 3 to air and adventitious metal ions was assessed primarily by UV/vis spectroscopy. […] Complex 3, however, is susceptible to metal exchange. When equimolar amounts of 3 and Fe(ClO4)2 are mixed in MeCN, 80% of the Mn(II) is replaced by Fe(II) by 3 h.

[2] = T1-weighted relaxivity (r1) on 3 T clinical MRI scanner; assay type: physicochemical; settings: 50 mM HEPES pH 7.00, 3 T
[3] = Potentiometric pH titrations, Hyperquad model
Description: The speciation in water was more rigorously probed with potentiometric pH titrations. […] The quinolic protons likely deprotonate at higher pH values (pKa˜10), but we were unable to obtain the high pH data necessary to confirm this.
The data were fit to a model containing the protonated forms of the free ligand and four Mn(II) complexes with the ligand in various protonation states: [Mn(H2qtp2)], [Mn(H3qtp2)]^+, [Mn(H4qtp2)]^2+, and [Mn(H4qtp2)]^3+ (Scheme 4).

[4] = DPPH free radical scavenging assay; assay type: biochemical; settings: Example 1
Description: An alternative assessment of the Mn(II) complexes' anti-oxidant properties relied upon the DPPH assay. Aqueous solutions of either 1, 2, or ascorbic acid were added to a solution of 0.10 mM DPPH in MeOH, such that the final reaction volume was 0.2 mL. Samples were incubated in the dark for 30 min at room temperature. Spectrophotometric measurements were subsequently performed at 517 nm using a Molecular Devices Spectramax Plus. This wavelength corresponds to the λmax of the reduced product. Experiments were performed in triplicate and repeated twice.
The anti-oxidant properties of 1 and 2 were also assessed using the DPPH assay (DPPH=2,2-diphenyl-1-picrylhydrazyl radical hydrate), which evaluates the ability of a compound to donate hydrogen atoms to DPPH to yield the corresponding hydrazine. The anti-oxidants were added to DPPH and incubated in the dark for 30 min at room temperature. Spectroscopic measurements were performed at 517 nm. The data were normalized to the absorbance in the presence of vehicle. All experiments were performed in triplicate and repeated twice.
Complex 3 is also a competent […] as assessed by the DPPH assay (FIG. 33), which tests the abilities of compounds to donate hydrogen atoms to 2,2-diphenyl-1-picrylhydrazyl radical hydrate. […] The data were normalized to the absorbance in the presence of vehicle. […] The hydrazine product is monitored by UV/vis.

[5] = Metal exchange with Fe(ClO4)2 followed by UV/vis; assay type: physicochemical; settings: 0.10 mM complex + 0.10 mM Fe(ClO4)2, MeCN
Description: as §1, §2

Compound	stability in aerobic solution [1]	r1 after addition of KO2 ([2]; 2 mM KO2)	r1 after addition of NaClO ([2]; 10 mM NaClO)	r1 of fully oxidized sensor ([2]; oxidized by DDQ)	percentage of free Mn(II) ([3]; pH 7.0)	manganese bound by some form of the ligand ([3]; pH 7.4)	error introduced by air oxidation ([1]; aerated MeOH, 4 h)	decrease in intensity of 302 nm quinol feature ([1]; aerated MeOH, 12 h)	DPPH reduction [4]	displacement of Mn(II) by Fe(II) ([5]; 0-60 min)	Mn(II) displaced by Fe(II) ([5]; 15 h)
CC#N.O=S(=O)([O-])C(F)(F)F.O=S(=O)([O-])C(F)(F)F.[Mn+2].[O-]c1ccc(O)cc1CN(CCN(Cc1ccccn1)Cc1ccccn1)Cc1ccccn1 [Complex 1, Acetonitrilo(N-(2,5-dihydroxy-benzyl)-N,N′,N′-tris(2-pyridinylmethyl)-1,2-ethanediamine)manganese(II) triflate]	sufficiently stable in aerobic water solutions; also recorded: slightly sensitive towards oxygen	5520 M⁻¹ s⁻¹	4.82 mM⁻¹ s⁻¹	5.56 mM⁻¹ s⁻¹	–	–	–	–	–	–	–
cis-Dibromo(N,N′-bis(2,5-dihydroxybenzyl)-N,N′-bis(2-pyridinylmethyl)-1,2-ethanediamine)manganese(II) [Complex 3]	moderately stable in aerobic aqueous solutions above pH 7.0	–	–	–	1.4%	Over 99%	< 5%	about 10%	–	–	–
CC#N.Cc1ccc(O)c(CN(CCN(Cc2ccccn2)Cc2ccccn2)Cc2ccccn2)c1.[Mn+2].[O-][Cl+3]([O-])([O-])[O-].[O-][Cl+3]([O-])([O-])[O-] [Complex 2, reference compound]	–	–	–	–	–	–	–	–	fails to reduce DPPH to a noticeable degree	negligible displacement	approximately 11%

Source: patent US10233205B2, “Magnetic resonance imaging contrast agent capable of detecting hydrogen peroxide and reducing reactive oxygen species” (Auburn University, priority 2015, dated 2019)
